Experimental data taken from paper PMC2759517 (PLoS ONE, 2009).
pIC50: −log10 of the molar value. Where no end group is shown, it is not given here.

How the values were obtained:
[1] = biological target: HA-tagged PA of FluA (Influenza A virus, UniProt Q2VC91); assay: biochemical; format: binding
[2] = biological target: T1, HA-tagged PA of FluB (Influenza B virus, UniProt Q9QLI9); assay: biochemical; format: binding
T1 construct: upstream of the initiation codon and antisense primers with a deleted stop codon; made in house; host or cells: human 293T cells, transiently transfected; unpurified cell lysate
T1 sequence (Q9QLI9 whole entry): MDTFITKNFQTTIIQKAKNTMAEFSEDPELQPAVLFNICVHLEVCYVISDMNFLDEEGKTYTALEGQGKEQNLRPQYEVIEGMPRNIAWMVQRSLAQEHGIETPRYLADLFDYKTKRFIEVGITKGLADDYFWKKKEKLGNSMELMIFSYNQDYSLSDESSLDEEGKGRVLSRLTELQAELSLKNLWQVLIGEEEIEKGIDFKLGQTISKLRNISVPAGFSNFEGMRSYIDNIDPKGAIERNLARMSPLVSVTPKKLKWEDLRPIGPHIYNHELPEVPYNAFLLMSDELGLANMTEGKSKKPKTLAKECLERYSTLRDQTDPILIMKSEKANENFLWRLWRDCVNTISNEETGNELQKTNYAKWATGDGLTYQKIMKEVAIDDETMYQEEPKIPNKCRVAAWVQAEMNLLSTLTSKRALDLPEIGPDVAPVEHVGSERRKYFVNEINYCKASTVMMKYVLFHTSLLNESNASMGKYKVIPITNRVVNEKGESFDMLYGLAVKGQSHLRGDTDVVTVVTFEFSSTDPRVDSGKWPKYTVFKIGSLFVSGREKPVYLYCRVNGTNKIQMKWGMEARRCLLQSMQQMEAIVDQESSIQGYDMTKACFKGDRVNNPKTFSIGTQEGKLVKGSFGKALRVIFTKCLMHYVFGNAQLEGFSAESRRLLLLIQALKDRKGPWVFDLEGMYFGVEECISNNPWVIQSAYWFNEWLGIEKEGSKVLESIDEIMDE

Compound: MDVNPTLLFLK-NH2 [1–11]
- pIC50 [1]: 6.05

Compound: MNINPYFLFIDVPIQ-NH2 [PB11-15 B]
- pIC50 [2]: 7.35

Compound: CSCC[C@H](N)C(=O)N[C@@H](CC(=O)O)C(=O)N[C@H](C(=O)N[C@@H](CC(N)=O)C(=O)N1CCC[C@H]1C(=O)N[C@H](C(=O)N[C@@H](CC(C)C)C(=O)N[C@@H](CC(C)C)C(=O)N[C@@H](Cc1ccccc1)C(=O)N[C@@H](CC(C)C)C(=O)N[C@@H](CCCCN)C(=O)N[C@H](C(=O)N1CCC[C@H]1C(=O)N[C@@H](C)C(=O)N[C@@H](CCC(N)=O)C(N)=O)C(C)C)[C@@H](C)O)C(C)C [PB11-15 A]
- pIC50 [2]: < 5.52
